# Test results from ChEMBL document CHEMBL3988442, “University of Dundee, Small-Polar-MMV Screening Library” (2021).
# Values joined by “and” are separate entries in the source; they are usually repeats but may differ in a detail not shown here. Identical values can stand only once.
# How the values were obtained:
# [1] = target: T1, Coenzyme A biosynthesis bifunctional protein CoaBC (Mycobacterium tuberculosis (strain ATCC 25618 / H37Rv), UniProt P9WNZ1); experiment: Biomol Green assay for MtCoaBC inhibitor, OD650 read; type: functional
# T1 sequence (P9WNZ1 whole entry): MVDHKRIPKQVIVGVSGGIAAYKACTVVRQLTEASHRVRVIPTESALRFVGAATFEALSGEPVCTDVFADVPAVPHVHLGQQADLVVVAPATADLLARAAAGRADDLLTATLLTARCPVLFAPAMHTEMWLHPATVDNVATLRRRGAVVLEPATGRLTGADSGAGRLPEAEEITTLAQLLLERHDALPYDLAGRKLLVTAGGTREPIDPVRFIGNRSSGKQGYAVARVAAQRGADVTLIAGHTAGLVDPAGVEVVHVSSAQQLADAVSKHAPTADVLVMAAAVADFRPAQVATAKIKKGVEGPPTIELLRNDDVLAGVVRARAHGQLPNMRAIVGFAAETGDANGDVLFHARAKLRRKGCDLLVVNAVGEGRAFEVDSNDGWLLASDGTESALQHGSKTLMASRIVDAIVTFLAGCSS
# [2] = target: T2, Histidine--tRNA ligase (Trypanosoma cruzi (strain CL Brener), UniProt Q4DA54); experiment: Trypanosoma cruzi histidyl tRNA synthetase (Tc-HisRS); type: functional
# T2 sequence (Q4DA54 whole entry): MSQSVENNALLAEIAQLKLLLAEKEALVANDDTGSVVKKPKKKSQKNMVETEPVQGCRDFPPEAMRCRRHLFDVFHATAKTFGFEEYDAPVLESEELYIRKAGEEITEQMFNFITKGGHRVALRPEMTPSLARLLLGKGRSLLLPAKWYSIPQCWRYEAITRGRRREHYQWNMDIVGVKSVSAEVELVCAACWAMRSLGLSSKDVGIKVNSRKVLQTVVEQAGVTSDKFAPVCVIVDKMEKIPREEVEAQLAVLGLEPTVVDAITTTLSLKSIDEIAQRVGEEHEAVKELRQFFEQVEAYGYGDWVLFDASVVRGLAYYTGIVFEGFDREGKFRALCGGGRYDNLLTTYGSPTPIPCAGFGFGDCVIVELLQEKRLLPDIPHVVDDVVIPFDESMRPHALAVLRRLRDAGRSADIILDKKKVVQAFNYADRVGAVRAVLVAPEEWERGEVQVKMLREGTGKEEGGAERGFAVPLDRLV
# [3] = target: T3, Histidine--tRNA ligase (Leishmania infantum, UniProt A4I591); experiment: Leishmania infantum Histidine tRNA synthetase (LdHisRS); type: functional
# T3 sequence (A4I591 whole entry): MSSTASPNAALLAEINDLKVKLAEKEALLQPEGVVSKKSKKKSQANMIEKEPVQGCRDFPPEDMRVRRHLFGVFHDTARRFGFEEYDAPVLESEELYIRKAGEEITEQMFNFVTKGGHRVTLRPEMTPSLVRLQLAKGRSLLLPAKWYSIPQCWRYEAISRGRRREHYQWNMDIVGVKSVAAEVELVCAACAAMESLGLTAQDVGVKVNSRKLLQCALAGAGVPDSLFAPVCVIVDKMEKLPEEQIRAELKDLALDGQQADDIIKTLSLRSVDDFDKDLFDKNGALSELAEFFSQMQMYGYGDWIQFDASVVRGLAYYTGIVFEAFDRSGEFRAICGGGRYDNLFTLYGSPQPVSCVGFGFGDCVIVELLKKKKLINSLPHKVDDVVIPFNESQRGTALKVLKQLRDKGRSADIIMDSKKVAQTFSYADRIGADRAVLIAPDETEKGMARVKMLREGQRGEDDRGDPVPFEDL
# [4] = tested on: Plasmodium falciparum; experiment: Calibr Malaria Delayed Death Assay SOP; type: functional, organism-based; details: for IC50: Plasmodium falciparum
# [5] = tested on: Mycobacterium tuberculosis; experiment: Cornell M. t heat shock assay; type: functional, organism-based; details: Mycobacterium tuberculosis
# [6] = microbe, parasite or virus in culture; details: Mycobacterium tuberculosis, 96 h, read-out: pIC50 (converted)
# [7] = microbe, parasite or virus in culture; details: Mycobacterium tuberculosis, 72 h, read-out: pIC50 (converted)
# [8] = tested on: Trypanosoma brucei; experiment: Trypanosoma brucei 72 hour study; type: functional, organism-based; details: for IC50: Trypanosoma brucei, 72 h
# [9] = target: Lysine--tRNA ligase (Plasmodium falciparum (isolate 3D7), UniProt Q8IDJ8); experiment: Pf-KRS-1 (Lysyl-RNA Synthetase-1, KRS-1, cytosolic KRS) from Plasmodium falciparum. Inhibitor assay, 384 well plate, luminescence read.; type: functional
# Lysine--tRNA ligase, sequence (Q8IDJ8 whole entry): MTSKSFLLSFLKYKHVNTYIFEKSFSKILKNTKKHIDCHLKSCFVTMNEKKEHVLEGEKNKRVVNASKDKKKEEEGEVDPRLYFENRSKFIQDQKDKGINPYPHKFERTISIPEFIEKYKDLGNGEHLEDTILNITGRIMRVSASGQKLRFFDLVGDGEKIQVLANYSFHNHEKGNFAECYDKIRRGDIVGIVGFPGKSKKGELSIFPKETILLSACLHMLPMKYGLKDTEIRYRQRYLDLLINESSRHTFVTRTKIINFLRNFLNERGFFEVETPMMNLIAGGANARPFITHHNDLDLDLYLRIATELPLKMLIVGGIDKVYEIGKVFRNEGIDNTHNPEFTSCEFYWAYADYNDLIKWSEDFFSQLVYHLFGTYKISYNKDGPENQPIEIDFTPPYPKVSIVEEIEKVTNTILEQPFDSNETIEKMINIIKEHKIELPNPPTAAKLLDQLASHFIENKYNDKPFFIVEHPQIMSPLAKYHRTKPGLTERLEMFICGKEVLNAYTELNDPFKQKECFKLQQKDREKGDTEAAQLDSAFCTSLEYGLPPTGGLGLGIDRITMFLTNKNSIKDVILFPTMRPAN
# [10] = target: Polyketide synthase Pks13 (Mycobacterium tuberculosis (strain ATCC 25618 / H37Rv), UniProt I6X8D2); experiment: Mycobacterium tuberculosis Polyketide synthase 13 Thioesterase (PKS13); type: functional
# Polyketide synthase Pks13, sequence (I6X8D2 whole entry): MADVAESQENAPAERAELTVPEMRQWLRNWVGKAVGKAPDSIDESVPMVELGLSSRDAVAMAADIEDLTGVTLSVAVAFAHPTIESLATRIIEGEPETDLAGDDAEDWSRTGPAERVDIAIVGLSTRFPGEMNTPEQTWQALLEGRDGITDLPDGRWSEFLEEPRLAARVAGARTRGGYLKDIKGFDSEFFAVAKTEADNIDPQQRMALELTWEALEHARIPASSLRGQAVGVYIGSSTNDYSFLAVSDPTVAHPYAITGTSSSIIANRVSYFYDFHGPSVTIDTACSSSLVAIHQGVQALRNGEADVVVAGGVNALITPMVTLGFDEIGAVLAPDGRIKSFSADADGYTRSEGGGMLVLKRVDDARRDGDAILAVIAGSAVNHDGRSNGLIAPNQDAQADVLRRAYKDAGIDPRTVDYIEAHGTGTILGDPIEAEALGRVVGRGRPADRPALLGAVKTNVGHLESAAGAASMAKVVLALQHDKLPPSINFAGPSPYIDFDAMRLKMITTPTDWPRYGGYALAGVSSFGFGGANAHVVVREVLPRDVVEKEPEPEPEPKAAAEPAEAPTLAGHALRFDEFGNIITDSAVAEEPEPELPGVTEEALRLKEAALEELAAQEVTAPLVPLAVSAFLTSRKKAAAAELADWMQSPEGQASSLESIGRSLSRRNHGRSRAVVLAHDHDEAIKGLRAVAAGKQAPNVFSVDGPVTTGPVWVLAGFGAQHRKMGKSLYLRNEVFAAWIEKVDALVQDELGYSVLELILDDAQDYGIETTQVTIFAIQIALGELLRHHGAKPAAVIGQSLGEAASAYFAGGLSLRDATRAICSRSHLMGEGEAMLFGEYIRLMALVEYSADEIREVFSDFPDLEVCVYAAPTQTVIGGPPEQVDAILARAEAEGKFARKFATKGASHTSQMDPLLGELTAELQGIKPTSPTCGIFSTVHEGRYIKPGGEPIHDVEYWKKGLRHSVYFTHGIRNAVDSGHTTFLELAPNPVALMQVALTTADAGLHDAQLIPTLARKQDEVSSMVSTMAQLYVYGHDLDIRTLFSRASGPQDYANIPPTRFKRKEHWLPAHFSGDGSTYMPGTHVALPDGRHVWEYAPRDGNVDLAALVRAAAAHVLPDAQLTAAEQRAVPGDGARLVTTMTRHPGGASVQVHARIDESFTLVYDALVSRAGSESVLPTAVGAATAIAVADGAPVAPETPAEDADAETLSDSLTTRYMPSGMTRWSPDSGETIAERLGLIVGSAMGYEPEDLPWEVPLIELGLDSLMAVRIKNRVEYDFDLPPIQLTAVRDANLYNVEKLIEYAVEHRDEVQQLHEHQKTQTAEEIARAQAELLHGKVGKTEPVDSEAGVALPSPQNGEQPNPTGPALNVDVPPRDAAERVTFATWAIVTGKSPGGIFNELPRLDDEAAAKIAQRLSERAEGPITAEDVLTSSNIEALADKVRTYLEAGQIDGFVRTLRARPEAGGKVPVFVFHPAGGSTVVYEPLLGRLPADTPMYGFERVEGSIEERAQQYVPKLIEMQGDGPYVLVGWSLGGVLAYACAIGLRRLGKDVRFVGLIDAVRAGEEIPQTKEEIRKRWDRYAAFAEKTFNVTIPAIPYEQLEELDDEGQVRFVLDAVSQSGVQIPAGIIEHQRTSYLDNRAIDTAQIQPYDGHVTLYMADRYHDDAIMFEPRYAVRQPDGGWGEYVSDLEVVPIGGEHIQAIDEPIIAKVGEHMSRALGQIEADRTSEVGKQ
# [11] = target: T4, Ubiquitin-activating enzyme e1, putative (Leishmania donovani (strain BPK282A1), UniProt E9BSI1); experiment: Leishmania donovani Ubiquitin Activating Enzyme (LdE1); type: functional
# T4 sequence (E9BSI1 whole entry): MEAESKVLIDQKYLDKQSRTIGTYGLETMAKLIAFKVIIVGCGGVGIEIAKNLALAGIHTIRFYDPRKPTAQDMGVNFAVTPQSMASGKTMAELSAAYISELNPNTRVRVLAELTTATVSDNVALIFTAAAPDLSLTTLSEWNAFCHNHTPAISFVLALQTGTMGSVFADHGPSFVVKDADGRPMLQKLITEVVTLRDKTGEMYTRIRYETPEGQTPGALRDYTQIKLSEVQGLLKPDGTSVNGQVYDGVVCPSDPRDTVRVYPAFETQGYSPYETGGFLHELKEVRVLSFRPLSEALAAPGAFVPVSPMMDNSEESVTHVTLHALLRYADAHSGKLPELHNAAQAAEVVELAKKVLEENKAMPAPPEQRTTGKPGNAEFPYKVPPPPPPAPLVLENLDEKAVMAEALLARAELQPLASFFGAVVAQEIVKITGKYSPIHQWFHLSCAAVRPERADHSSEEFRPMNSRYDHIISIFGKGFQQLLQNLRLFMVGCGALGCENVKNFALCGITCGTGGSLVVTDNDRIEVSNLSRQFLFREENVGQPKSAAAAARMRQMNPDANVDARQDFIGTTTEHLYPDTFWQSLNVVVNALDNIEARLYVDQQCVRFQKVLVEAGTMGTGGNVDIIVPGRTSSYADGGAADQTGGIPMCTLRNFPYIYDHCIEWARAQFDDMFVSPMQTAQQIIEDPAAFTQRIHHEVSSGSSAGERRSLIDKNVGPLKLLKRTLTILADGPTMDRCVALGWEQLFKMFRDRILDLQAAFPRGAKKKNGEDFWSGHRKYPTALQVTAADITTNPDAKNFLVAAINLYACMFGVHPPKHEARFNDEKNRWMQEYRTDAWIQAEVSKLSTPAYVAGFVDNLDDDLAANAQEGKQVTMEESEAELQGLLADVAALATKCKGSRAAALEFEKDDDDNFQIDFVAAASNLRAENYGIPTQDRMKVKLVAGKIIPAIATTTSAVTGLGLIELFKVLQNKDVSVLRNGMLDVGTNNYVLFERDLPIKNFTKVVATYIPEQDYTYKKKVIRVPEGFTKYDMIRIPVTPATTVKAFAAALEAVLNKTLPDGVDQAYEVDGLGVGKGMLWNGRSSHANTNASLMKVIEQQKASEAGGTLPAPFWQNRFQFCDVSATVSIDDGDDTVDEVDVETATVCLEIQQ
Structure (SMILES),IC50 [2],IC50 [3],IC50 [9] [µM],also measured
NCC1Cc2cc(-c3nccc(N4CCC(O)CC4)n3)cc(Cl)c2O1 (stereo not given),48.1 µM and 22.3 µM,20900 nM and 21000 nM,,IC50 [1]: > 30.2 µM; pIC50 [4]: 6.303; IC50 [4]: 545 nM
Cl.Fc1ccc(F)c(CN2CCC(c3cc4ncccc4cn3)CC2)c1,58.4 µM and 43.6 µM,,,pIC50 [4]: 6.54; IC50 [4]: 505 nM; IC50 [5]: > 100 µM; IC50 [6]: > 50.1 µM; IC50 [7]: 27.2 µM
O=C(NCCc1ccn(-c2ccccc2)n1)N1CCC1,,,,pIC50 [8]: 6.164 and 6.213; IC50 [8]: 530 nM
CCCn1cc(NC(=O)c2ccc(S(C)(=O)=O)cc2)ccc1=O,21.5 µM and 19.6 µM,1710 nM and 847 nM and 944 nM and 1370 nM,> 50.1,
CCCn1cc(NC(=O)c2ccncc2)ccc1=O,5.29 µM and 4 µM,3640 nM and 3180 nM,> 50.1,
O=C(NCCc1coc(-c2ccc(F)cc2)n1)NC1CC1,,,,pIC50 [8]: 5.662 and 5.643; IC50 [8]: 2170 nM
CCOC1CCCN(C(=O)NCCc2ccn(-c3ccccc3)n2)C1 (stereo not given),,,,pIC50 [8]: 6.745 and 6.727; IC50 [8]: 141 nM
COc1ccc(CNC(=O)Nc2ccc(=O)n(C)c2)cc1,5.8 µM and 5.68 µM,1740 nM and 2250 nM and 1760 nM and 2080 nM,> 50.1,
CN(Cc1ccsc1)C(=O)Nc1ccc(=O)n(C)c1,4.99 µM and 3.42 µM,4200 nM and 4050 nM,> 50.1,
c1ccc(N2CCCC3(COCCN(c4nccs4)C3)C2)nc1 (stereo not given),73.9 µM and 71.8 µM,,,IC50 [1]: > 30.2 µM
Cc1cc(C)n(CC2CCCN2Cc2nc(N)c3ccccc3n2)n1 (stereo not given),> 100 µM,,,IC50 [5]: > 100 µM
CCCn1cc(NC(=O)c2ccc(S(=O)(=O)CC)cc2)ccc1=O,2.37 µM and 2.75 µM,1470 nM and 1050 nM and 2810 nM and 2060 nM,> 50.1,
c1ccc(N2CCOCC3(CCCN(c4nccs4)C3)C2)nc1 (stereo not given),> 100 µM,,,IC50 [10]: > 100 µM
Cn1cc(NC(=O)N2CCC(Cc3ccccc3)CC2)ccc1=O,3.14 µM and 2.52 µM,6790 nM and 5480 nM,,IC50 [11]: > 100 µM
Cn1cc(NC(=O)NCc2ccoc2)ccc1=O,7.29 µM and 8.84 µM,3440 nM and 3040 nM,> 50.1,
CN(C)c1ccc(-c2cc(C(=O)O)cc(S(=O)(=O)NC3CC3)c2)cc1,,,,pIC50 [8]: 5.904 and 6.15; IC50 [8]: 716 nM
Cc1cc(=O)n(C)cc1NC(=O)Cc1cccc(F)c1,6.21 µM,7600 nM and 8670 nM,> 50.1,
Cn1cc(NC(=O)C2CC(c3ccccc3)C2)ccc1=O (stereo not given),8.22 µM,8880 nM and 10500 nM,,IC50 [11]: > 100 µM
Cc1cnc(N2CCC3(CCN(CC4CC4)C3=O)CC2)nc1,> 100 µM,,,IC50 [10]: > 100 µM
Cn1cc(NC(=O)N2CCC(OCc3ccccc3)CC2)ccc1=O,17 µM and 14.8 µM,11600 nM and 6660 nM,,IC50 [11]: > 100 µM
Cn1cc(NC(=O)N2CCCC2c2ccccn2)ccc1=O (stereo not given),9.32 µM and 9.24 µM,2710 nM and 1570 nM and 2820 nM and 1510 nM,> 50.1,
